Laboratory results taken from patent US20050159345A1 (Boehringer Ingelheim International GmbH, priority 2002, published 2005).

Target: T1, HCV genotype 2a-c NS3-NS4A protease (UniProt P26660)
T1 sequence (P26660 1031-1661): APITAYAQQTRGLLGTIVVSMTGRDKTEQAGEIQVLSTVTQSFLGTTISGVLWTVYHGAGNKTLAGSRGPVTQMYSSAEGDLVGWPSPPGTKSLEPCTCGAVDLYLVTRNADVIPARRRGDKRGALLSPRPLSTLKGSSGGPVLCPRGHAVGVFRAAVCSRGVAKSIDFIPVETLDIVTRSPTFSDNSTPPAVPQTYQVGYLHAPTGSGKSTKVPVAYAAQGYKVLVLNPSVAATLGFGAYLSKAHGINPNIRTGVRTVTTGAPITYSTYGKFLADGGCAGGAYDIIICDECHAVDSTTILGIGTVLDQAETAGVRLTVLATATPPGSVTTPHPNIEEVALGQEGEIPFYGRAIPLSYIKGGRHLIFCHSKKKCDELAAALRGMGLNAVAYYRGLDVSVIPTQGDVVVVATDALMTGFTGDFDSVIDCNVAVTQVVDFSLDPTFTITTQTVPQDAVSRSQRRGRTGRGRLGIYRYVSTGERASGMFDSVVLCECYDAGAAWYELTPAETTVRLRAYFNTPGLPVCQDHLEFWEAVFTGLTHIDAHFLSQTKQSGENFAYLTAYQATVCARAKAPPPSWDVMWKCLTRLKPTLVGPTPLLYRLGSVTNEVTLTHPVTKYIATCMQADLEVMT
Assay: Inhibition constant (Ki) determination, genotype 2a-c
Assay type: biochemical
Settings: read-out: Ki HCV genotype 2a-c

With `COc1ccc2c(O[C@@H]3C[C@H]4C(=O)N[C@]5(C(=O)O)CC5/C=C\CCCCC[C@H](NC(=O)OC5CCCC5)C(=O)N4C3)cc(-c3csc(NC(C)C)n3)nc2c1` (stereo partly shown) [IV] the Ki was 86 nM.
